Experimental data as given in PubChem BioAssay (NCI).
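48-hour exposure; five concentrations; linearly interpolated endpoints. GI50 = concentration required for 50% inhibition of growth. TGI is the concentration that stops growth completely.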

What was measured:
Test in all cases: DTP human tumour cell line panel, 48 h
CAKI-1 renal = test system: CAKI-1 renal
HCC-2998 colon = test system: HCC-2998 colon
HL-60(TB) leukemia = test system: HL-60(TB) leukemia
HS 578T breast = test system: HS 578T breast
K-562 leukemia = test system: K-562 leukemia
NCI-H226 lung = test system: NCI-H226 lung
SK-MEL-5 melanoma = test system: SK-MEL-5 melanoma
T-47D breast = test system: T-47D breast
TK-10 renal = test system: TK-10 renal
PC-3 prostate = test system: PC-3 prostate

| SMILES | TGI (CAKI-1 renal) [µM] | TGI (HCC-2998 colon) [µM] | TGI (HL-60(TB) leukemia) [µM] | TGI (HS 578T breast) [µM] | TGI (K-562 leukemia) [µM] | TGI (NCI-H226 lung) [µM] | TGI (SK-MEL-5 melanoma) [µM] | TGI (T-47D breast) [µM] | TGI (TK-10 renal) [µM] | TGI (PC-3 prostate) [µM] | GI50 (CAKI-1 renal) [µM] | GI50 (HCC-2998 colon) [µM] | GI50 (HL-60(TB) leukemia) [µM] | GI50 (K-562 leukemia) [µM] | GI50 (SK-MEL-5 melanoma) [µM] | GI50 (T-47D breast) [µM] |
| --- | --- | --- | --- | --- | --- | --- | --- | --- | --- | --- | --- | --- | --- | --- | --- | --- |
| COc1cc(C(=O)N(Cc2cccnc2)C(=S)N(Cc2cccnc2)C(=O)c2cc(OC)c(OC)c(OC)c2)cc(OC)c1OC | > 100 | 62.2 | > 100 | > 100 | > 100 | > 100 | > 100 | > 100 | > 100 |  |  |  |  |  |  |  |
| O=C(NI1OC(=O)c2ccccc21)c1ccc(Cl)cc1 | > 100 | > 100 | > 100 |  | > 100 | > 100 | > 100 | > 100 | > 100 | > 100 |  |  |  |  |  |  |
| O=c1[nH]nc(-c2ccccc2)c2[nH]c3c4ccccc4ccc3c12 |  | 4.81 | > 100 |  | > 100 | > 100 | > 100 | > 100 |  | > 100 |  |  |  |  |  |  |
| COC1=C(OC)C(=O)C(Cc2c(C)nc3sc(C)cn23)=C(C)C1=O | 37.4 | 92.9 | 29.8 | 67.1 | 39 |  | 28.6 | > 100 | 35.6 | 68.3 |  |  |  |  |  |  |
| O=Cc1ccc2c(c1)CC1(Cc3ccccc3C1)C2 |  | > 100 | 39.5 | > 100 | 44.9 | 73.2 | 29.4 | > 100 | > 100 | 59.6 |  |  |  |  |  |  |
| CON(C)C(=O)CNC(=O)OCC1c2ccccc2-c2ccccc21 |  | > 100 | 90.9 | > 100 | > 100 | > 100 | > 100 | > 100 | > 100 | > 100 |  |  |  |  |  |  |
| CSc1ncnc2c1ncn2C1CC(Oc2ccc(C)cc2)C(COc2ccc(C)cc2)O1 (configuration not stated) | > 100 | > 100 | > 100 | > 100 |  | > 100 | > 100 | > 100 | > 100 | > 100 |  |  |  |  |  |  |
| O=C1C(CN2CCCCC2)CCC1CN1CCCCC1 (configuration not stated) | 25 | > 62.5 |  | > 73.2 |  | > 100 | > 69.3 | 36.5 | 37 | > 57.6 |  |  |  |  |  |  |
| CC1NC(=O)CC(c2ccccc2)N(N=O)C1c1ccccc1 (configuration not stated) | > 100 | > 100 | > 67.2 |  | > 88.5 | > 100 | > 100 |  |  |  |  |  |  |  |  |  |
| NC(Cc1ccccc1)C(=O)N[C@H]1c2ccsc2/C(=N/O)[C@H]1O (some centres not stated) | > 100 | > 100 | > 100 |  | > 100 | > 100 | > 100 | > 100 | > 100 | > 100 |  |  |  |  |  |  |
| CNc1ccc(C(=O)CC(O)CCC(C)C2OC(=O)CC(O)CC(=O)CC(O)CC(O)CC(O)CC(O)CC3(O)CC(O)C(C(=O)OC)C(CC(O[C@@H]4O[C@H](C)[C@@H](O)[C@H](N)[C@@H]4O)/C=C/C=C/C=C/C=C/C=C/C=C/C=C/C2C)O3)cc1 (some centres not stated) | 4.89 | 12.3 | 7.04 |  | 40.2 |  | 3.17 | > 100 |  |  | 1.88 | 3.25 | 2.9 | 5.05 | 1.42 | 3.37 |
| O=C1/C(=C/c2ccc([N+](=O)[O-])cc2)C(=O)N(c2ccccc2)C1c1ccccc1 (configuration not stated) | > 10 | > 10 | > 10 | > 10 |  | > 10 | > 10 | > 10 | > 10 | > 10 |  |  |  |  |  |  |
| Cc1ccc(SCC(CF)OC(C)n2cnc3c(=O)[nH]c(N)nc32)cc1 (configuration not stated) | > 100 | > 100 | > 100 | > 100 |  | > 100 | 47.6 | > 100 | > 100 | > 100 |  |  |  |  |  |  |
| Nc1nc(N)c2ncn(-c3ccc(Cl)cc3)c2n1 | > 100 | > 100 | > 100 |  |  | > 100 | > 100 | > 100 | > 100 | > 100 |  |  |  |  |  |  |
| CCOC(=O)C(=Cc1[nH]c2ccccc2c1-c1c[nH]c2ccccc12)C(=O)OCC | 30.8 | 25 |  | 91.3 | 26.6 | 37.5 | 29.2 |  | 26.1 | 25 |  |  |  |  |  |  |
| CCOCc1nc2c(OC)cc(-c3nc4ccc(N5CCN(C)CC5)cc4[nH]3)c(OC)c2[nH]1 | 81.9 |  | 21.1 | > 100 | > 100 | 81 | 31.6 | > 100 | > 100 | > 100 |  |  |  |  |  |  |
| O=C1CCC(c2ccc(Cl)cc2)=NN1c1nsc2ccccc12 |  | 44.8 | 46.3 |  | 68 |  |  |  | > 100 |  |  |  |  |  |  |  |
| COC(CNC(=O)C(C)NC(=O)CCc1ccccc1)OC (configuration not stated) | > 100 |  | > 100 | > 100 | > 100 | > 100 | > 100 | > 100 | > 100 | > 100 |  |  |  |  |  |  |
| COc1cccc(-c2ccc3c4c2O[C@H]2C(=O)CC[C@@]5(O)[C@@H](C3)N(CC3CC3)CC[C@]425)c1 | 31 |  | 40.5 | 29.1 | 28.6 | 26.8 | 28 | 41.6 | 32.2 | 29.2 |  |  |  |  |  |  |
| CCCCN1C(=O)N(c2ccc(OCC)cc2)C2N(CCCC)C1C(C)(C)C2(C)C (configuration not stated) | 93.8 | > 100 |  | 75.2 |  | 49.3 | 67.7 | > 100 | 60.2 | > 100 |  |  |  |  |  |  |
| COc1cc(Cn2c3c(c4cc(O)ccc42)Cc2ccccc2C3=O)cc(OC)c1 | > 100 |  | > 100 | > 100 | > 100 | > 100 | > 100 |  | > 100 | > 100 |  |  |  |  |  |  |
| COc1cc(/C=C2/C[C@H]3[C@@H]4CC=C5C[C@@H](O)CC[C@]5(C)[C@H]4CC[C@]3(C)NC2=O)cc(OC)c1OC | > 59.9 | 25.8 | > 100 |  | > 100 | > 58.5 | > 47.5 | > 100 | > 82.1 | 79.4 |  |  |  |  |  |  |
| Cc1ccc(-c2c(C#N)c(-c3ccc(Cl)cc3)c(C#N)c(=O)n2NS(=O)(=O)c2ccc(C)cc2)cc1 | > 100 | 74.9 |  |  | > 100 | > 100 | 38.9 |  | > 100 | 45 |  |  |  |  |  |  |
| COc1ccc(C(=C(Cl)c2ccccc2)c2ccc(OC)cc2)cc1 | > 100 |  | > 100 | > 100 | > 100 | > 100 | > 100 | > 100 | > 100 | > 100 |  |  |  |  |  |  |
